According to ChEMBL document CHEMBL5154879, “Induction of Genes Implicated in Stress Response and Autophagy by a Novel Quinolin-8-yl-nicotinamide QN523 in Pancreatic Cancer” (J Med Chem, 2022):
Calls of active or inactive are those of the source. No cut-off for these calls is given here.

Columns and labels:
[1] = Toxicity in NOD/SCID mouse xenografted with human MIA PaCa- 2 cells assessed as morphological changes in liver at 10 to 20 mg/kg, ip administered five times a week for 44 days by H and E staining based inverted microscopic analysis; assay type: organism-based; details: in vivo, 1056 h, dose 10-20 mg/kg, time 44 day
MIA PaCa-2 [2] = assay: Synergistic autophagy activity in human MIA PaCa-2 cells assessed as inhibition of colony formation at 0.001 to 0.1 uM incubated for 7 days in presence of autophagy inhibitor chloroquine by crystal violet staining based assay; assay type: functional, cell-based; details: dose 0.001-0.1 µM, time 7.0 day
[3] = Downregulation of TNFAIP8LI gene expression in human MIA PaCa-2 cells assessed as fold change in TNFAIP8LI expression at 1 uM incubated for 24 hrs by Bru-seq analysis relative to control; assay type: functional
PANC-1 = assay: Inhibition of colony formation in human PANC-1 cells at 1 uM incubated for 10 to 14 days by crystal violet staining based assay; assay type: functional, cell-based; details: time 10-14 day
MIA PaCa-2 [4] = assay: Upregulation of ER- related gene expression in human MIA PaCa-2 cells; assay type: functional, cell-based
[5] = Upregulation of HSPA5 gene expression in human MIA PaCa-2 cells assessed as fold change in HSPA5 expression at 1 uM incubated for 24 hrs by Bru-seq analysis relative to control; assay type: functional
MIA PaCa-2 [6] = assay: Upregulation of hypoxia in human MIA PaCa-2 cells by gene set enrichment analysis; assay type: functional, cell-based
MIA PaCa-2 [7] = assay: Antiproliferative activity against human MIA PaCa-2 cells assessed as inhibition of cell growth at 0.1 to 10 uM incubated for 1 to 72 hrs followed by compound washout with PBS and replacement with fresh culture medium and measured after 72 hrs by MTT assay; assay type: functional, cell-based; details: dose 0.1-10 µM, time 1-72 hrs, TDE = time-dependent effect
[8] = Upregulation of HMOX1 gene expression in human MIA PaCa-2 cells assessed as fold change in HMOX1 expression at 1 uM incubated for 24 hrs by Bru-seq analysis relative to control; assay type: functional
[9] = Downregulation of TRAF7 gene expression in human MIA PaCa-2 cells assessed as fold change in TRAF7 expression at 1 uM incubated for 24 hrs by Bru-seq analysis relative to control; assay type: functional
[10] = Downregulation of STK1I gene expression in human MIA PaCa-2 cells assessed as fold change in STK1I expression at 1 uM incubated for 24 hrs by Bru-seq analysis relative to control; assay type: functional
[11] = Toxicity in NOD/SCID mouse xenografted with human MIA PaCa-2 cells assessed as weight loss at 10 to 20 mg/kg, ip administered five times a week for 44 days; assay type: organism-based; details: in vivo, 1056 h, dose 10-20 mg/kg, time 44 day
MIA PaCa-2 [12] = assay: Antitumor activity against human MIA PaCa-2 cells xenografted in NOD/SCID mouse assessed as tumor growth inhibition at 20 mg/kg, ip administered five times a week starting from day 10 to 44 and measured from day 17 relative to control; assay type: functional; details: MIA PaCa-2, 816 h, time 34 day, read-out: TGI
MIA PaCa-2 [13] = assay: Induction of cell cycle arrest in human MIA PaCa-2 cells assessed as accumulation of cells in G0/G1 phase at 0.1 uM incubated for 48 hrs by RNase/propidium iodide staining based flow cytometry analysis (reference value: 70.4%); assay type: functional
MIA PaCa-2 [14] = assay: Upregulation of MTOR signalling in human MIA PaCa-2 cells by gene set enrichment analysis; assay type: functional, cell-based
OVCAR-8 = assay: Antiproliferative activity against human OVCAR-8 cells assessed as inhibition of cell growth incubated for 72 hrs by MTT assay; assay type: functional, cell-based; details: OVCAR-8, 72 h
MIA PaCa-2 [15] = assay: Induction of cell cycle arrest in human MIA PaCa-2 cells assessed as accumulation of cells in G0/G1 phase at 0.5 uM incubated for 48 hrs by RNase/propidium iodide staining based flow cytometry analysis (reference value: 70.4%); assay type: functional
[16] = Upregulation of FAM129A gene expression in human MIA PaCa-2 cells assessed as fold change in FAM129A expression at 1 uM incubated for 24 hrs by Bru-seq analysis relative to control; assay type: functional
[17] = Upregulation of UPP1 gene expression in human MIA PaCa-2 cells assessed as fold change in UPP1 expression at 1 uM incubated for 24 hrs by Bru-seq analysis relative to control; assay type: functional
[18] = Upregulation of SAT1 gene expression in human MIA PaCa-2 cells assessed as fold change in SAT1 expression at 1 uM incubated for 24 hrs by Bru-seq analysis relative to control; assay type: functional
Jurkat = assay: Antiproliferative activity against human Jurkat cells assessed as inhibition of cell growth incubated for 72 hrs by MTT assay; assay type: functional, cell-based
[19] = Cytotoxicity against human HFF-1 cells assessed as inhibition of cell growth incubated for 72 hrs by MTT assay; assay type: toxicity, cell-based
[20] = Cytotoxicity against HEK293 cells assessed as inhibition of cell growth incubated for 72 hrs by MTT assay; assay type: toxicity, cell-based; details: human
[21] = Downregulation of LAMA5 gene expression in human MIA PaCa-2 cells assessed as fold change in LAMA5 expression at 1 uM incubated for 24 hrs by Bru-seq analysis relative to control; assay type: functional
SNU-475 = assay: Antiproliferative activity against human SNU-475 cells assessed as inhibition of cell growth incubated for 72 hrs by MTT assay; assay type: functional, cell-based; details: SNU-475, 72 h
MIA PaCa-2 [22] = assay: Induction of apoptosis in human MIA PaCa-2 cells assessed as necrotic cells at 0.1 uM incubated for 24 hrs by Annexin V-FITC/PI staining based flow cytometry analysis (reference value: 2.7%); assay type: functional
SNU-387 = assay: Antiproliferative activity against human SNU-387 cells assessed as inhibition of cell growth incubated for 72 hrs by MTT assay; assay type: functional, cell-based; details: SNU-387, 72 h
MIA PaCa-2 [23] = assay: Downregulation of chromosomal proteins expression in human MIA PaCa-2 cells; assay type: functional, cell-based
HepG2 = assay: Antiproliferative activity against human HepG2 cells assessed as inhibition of cell growth incubated for 72 hrs by MTT assay; assay type: functional, cell-based; details: HepG2, 72 h
Hep 3B2 = assay: Antiproliferative activity against human Hep3B cells assessed as inhibition of cell growth incubated for 72 hrs by MTT assay; assay type: functional, cell-based
MIA PaCa-2 [24] = assay: Induction of ER stress pathway in human MIA PaCa-2 cells by ingenuity pathway analysis; assay type: functional, cell-based
MIA PaCa-2 [25] = assay: Induction of apoptosis in human MIA PaCa-2 cells assessed as necrotic cells at 0.5 uM incubated for 24 hrs by Annexin V-FITC/PI staining based flow cytometry analysis (reference value: 2.7%); assay type: functional
MIA PaCa-2 [26] = assay: Induction of autophagy in human MIA PaCa-2 cells assessed as accumulation of LC3B marker gene expression at upto 2 uM incubated for 72 hrs by Western blot analysis; assay type: functional, cell-based
SNU-449 = assay: Antiproliferative activity against human SNU-449 cells assessed as inhibition of cell growth incubated for 72 hrs by MTT assay; assay type: functional, cell-based; details: SNU-449, 72 h
MIA PaCa-2 [27] = assay: Induction of cell cycle arrest in human MIA PaCa-2 cells assessed as accumulation of cells in G2/M phase at 0.5 uM incubated for 24 hrs by RNase/propidium iodide staining based flow cytometry analysis (reference value: 8.11%); assay type: functional

Which Activity [1] does the source give for `O=C(Nc1cccc2cccnc12)c1cnccn1` here?
Its Activity is “Non-Toxic”.

What about the Activity (MIA PaCa-2 [2]) of the same molecule?
Its Activity is “Active”.

And the “fold change (FC)” value [3]?
The value was 0.32.

And the inhibition (PANC-1)?
The inhibition was “Active”.

What about the Activity (MIA PaCa-2 [4]) of the same molecule?
The Activity was “Active”.

And the “fold change (FC)” value [5]?
The value was 8.8.

What about the Activity (MIA PaCa-2 [6]) of the same molecule?
The Activity was “Active”.

What about the Activity (MIA PaCa-2 [7]) of the same molecule?
The Activity was “Tde”.

And the “fold change (FC)” value [8]?
Its value is 13.

What about the “fold change (FC)” value [9] of the same molecule?
Its value is 0.39.

What about the “fold change (FC)” value [10] of the same molecule?
Its value is 0.4.

And the Activity [11]?
The Activity was “Non-Toxic”.

And the inhibition in vivo at 20 mg/kg (MIA PaCa-2 [12])?
The inhibition in vivo at 20 mg/kg was 80%.

And the Activity (MIA PaCa-2 [13])?
Its Activity is 62.4%.

And the Activity (MIA PaCa-2 [14])?
The Activity was “Active”.

What about the IC50 (OVCAR-8) of the same molecule?
The IC50 was 300 nM.

And the Activity (MIA PaCa-2 [15])?
Its Activity is 31.2%.

And the “fold change (FC)” value [16]?
The value was 16.8.

And the “fold change (FC)” value [17]?
The value was 18.2.

What about the “fold change (FC)” value [18] of the same molecule?
Its value is 7.

What about the IC50 (Jurkat) of the same molecule?
Its IC50 is 100 nM.

What about the IC50 at 72 h [19] of the same molecule?
The IC50 at 72 h was over 30000 nM.

What about the IC50 at 72 h [20] of the same molecule?
The IC50 at 72 h was 150 nM.

And the “fold change (FC)” value [21]?
The value was 0.42.

And the IC50 (SNU-475)?
The IC50 was 2670 nM.

What about the Activity (MIA PaCa-2 [22]) of the same molecule?
The Activity was 2.2%.

And the IC50 (SNU-387)?
The IC50 was 5730 nM.

What about the Activity (MIA PaCa-2 [23]) of the same molecule?
Its Activity is “Active”.

And the IC50 (HepG2)?
The IC50 was 500 nM.

And the IC50 (Hep 3B2)?
Its IC50 is 210 nM.

What about the Activity (MIA PaCa-2 [24]) of the same molecule?
The Activity was “Active”.

And the Activity (MIA PaCa-2 [25])?
The Activity was 1.4%.

And the Activity (MIA PaCa-2 [26])?
Its Activity is “Active”.

What about the IC50 (SNU-449) of the same molecule?
Its IC50 is 400 nM.

And the Activity (MIA PaCa-2 [27])?
Its Activity is 10.5%.
